Values after ≈ are worked out from the molar mass of the structure shown.
Experiments:
[1] = background; cited from earlier work
[2] = Hemolysis of human erythrocytes by the cyclodextrin derivative; format: cell-based; conditions: erythrocytes; 5 mmole/l, 0.4 ml of human erythrocyte suspension, pH 7.4, 30 min, 37° C.; read-out: hemolysis percentage
human erythrocytes = assay: as above; format: cell-based; conditions: 50 mmole/l
physchem = conditions: water
[3] = Solubility in water of cyclodextrins
[4] = Solubility of prednisolone in water, alone or in the presence of a cyclodextrin; format: physicochemical
Protocol: 10 μmole of mono-3,6-anhydrocyclomaltoheptaose prepared in example 1 are dissolved in 1 ml of pure water (apyrogenic water for injections) and addition takes place of 5 μmole of prednisolone in the form of a 50 mmole/l concentrated solution in acetone. The acetone is eliminated under nitrogen bubbling and the solution lyophilized.
The residual solid, which contains 10 μmole of the cyclodextrin derivative and 5 μmole of prednisolone, is redissolved in the minimum of water at 25° C.

[5] = 25° C., without cyclodextrin; cited from earlier work

COC[C@H]1O[C@@H]2O[C@H]3[C@H](O)[C@@H](OC)[C@@H](O[C@H]4[C@H](O)[C@@H](OC)[C@@H](O[C@H]5[C@H](O)[C@@H](OC)[C@@H](O[C@H]6[C@H](O)[C@@H](OC)[C@@H](O[C@H]7[C@H](O)[C@@H](OC)[C@@H](O[C@H]8[C@H](O)[C@@H](OC)[C@@H](O[C@H]1[C@H](O)[C@H]2OC)O[C@@H]8COC)O[C@@H]7COC)O[C@@H]6COC)O[C@@H]5COC)O[C@@H]4COC)O[C@@H]3COC [2,6-dimethyl-β-cyclodextrin]
solubilizing properties for hydrophobic organic compounds [1]: good properties of solubilizing hydrophobic, organic compounds

OC[C@H]1O[C@@H]2O[C@H]3[C@H](O)[C@@H](O)[C@@H](O[C@H]4[C@H](O)[C@@H](O)[C@@H](O[C@H]5[C@@H]6OC[C@H]5O[C@H](O[C@H]5[C@H](O)[C@@H](O)[C@@H](O[C@H]7[C@H](O)[C@@H](O)[C@@H](O[C@H]8[C@H](O)[C@@H](O)[C@@H](O[C@H]1[C@H](O)[C@H]2O)O[C@@H]8CO)O[C@@H]7CO)O[C@@H]5CO)[C@@H]6O)O[C@@H]4CO)O[C@@H]3CO [mono-3,6-anhydrocyclomaltoheptaose]
hemolysis at 0.5 h, 5000 µM [2]: 0%
hemolytic properties at much higher concentrations (human erythrocytes): no hemolysis detectable
solubility (physchem): 520 mg/mL (≈ 466 mM)
solubility in water relative to .chi. and γ-cyclodextrins ([3]; ratio to .chi. and γ-cyclodextrins): at least twice
solubility in water relative to the original cyclodextrin ([3]; ratio to original cyclodextrin (18 g/l), 25° C.): ~30 times

C[C@]12C=CC(=O)C=C1CC[C@@H]1[C@@H]2[C@@H](O)C[C@@]2(C)[C@H]1CC[C@]2(O)C(=O)CO [prednisolone]
solubility ([4]; 25° C., in the presence of mono-3,6-anhydrocyclomaltoheptaose at 200 mmole/l, read-out: maximum prednisolone solubility in water): 100 mM
solubility ([4]; prednisolone solubility in the presence of β-cyclodextrin, same conditions, with β-cyclodextrin): 9 mM
solubility in water of prednisolone [5]: 0.25 mg/mL

OC[C@H]1O[C@@H]2O[C@H]3[C@H](O)[C@@H](O)[C@@H](O[C@H]4[C@H](O)[C@@H](O)[C@@H](O[C@H]5[C@H](O)[C@@H](O)[C@@H](O[C@H]6[C@H](O)[C@@H](O)[C@@H](O[C@H]7[C@H](O)[C@@H](O)[C@@H](O[C@H]8[C@H](O)[C@@H](O)[C@@H](O[C@H]1[C@H](O)[C@H]2O)O[C@@H]8CO)O[C@@H]7CO)O[C@@H]6CO)O[C@@H]5CO)O[C@@H]4CO)O[C@@H]3CO [β-cyclodextrin, cyclomaltoheptaose]
hemolysis at 0.5 h, 5000 µM [2]: 50%

Source: US5760016A, “Use of mono-3,6-anhydrocyclodextrins for solubilizing a hydrophobic compound and for controlling the purity of an enantiomer and process for the preparation of these cyclodextrins” (priority 1993, dated 1998)
